Assay [1] concerns the target T1, human DP2 receptor (Homo sapiens, UniProt Q9Y5Y4).
T1 construct: expressed in transfected cells; host or cells: CHO-K1 FLP-In (Invitrogen, catalog no. R758-07), stably transfected
T1 sequence (Q9Y5Y4 1-395): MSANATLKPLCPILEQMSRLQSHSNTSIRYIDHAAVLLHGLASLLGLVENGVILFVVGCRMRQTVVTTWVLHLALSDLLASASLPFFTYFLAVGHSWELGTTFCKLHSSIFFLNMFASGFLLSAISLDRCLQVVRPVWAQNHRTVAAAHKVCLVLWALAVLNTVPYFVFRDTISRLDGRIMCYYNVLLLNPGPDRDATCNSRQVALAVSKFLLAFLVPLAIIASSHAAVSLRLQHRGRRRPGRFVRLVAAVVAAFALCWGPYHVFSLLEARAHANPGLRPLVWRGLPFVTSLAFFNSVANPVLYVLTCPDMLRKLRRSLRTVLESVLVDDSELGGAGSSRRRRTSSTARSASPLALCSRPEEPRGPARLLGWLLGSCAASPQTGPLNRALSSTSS
In words: Measurement of inhibition of intracellular cAMP induction (LANCE cAMP TR-FRET). Particulars: human DP2 cells. Format: cell-based. The protocol: The ability of compounds to act as antagonists or agonists at the human DP2 receptor was determined by measuring changes in intracellular cAMP levels using a LANCE cAMP detection kit (PerkinElmer, catalog no. AD0264) utilizing time-resolved fluorescence resonance energy transfer (TR-FRET).
Human DP2 cells were grown as described above. Cells were diluted to 2×10^5 cells/mL, and pre-incubated with 0.5 mM […] or IBMX (Sigma, catalog no. I7018). Antibody was added to all the cells as per the manufacturer's instructions. For antagonist experiments, cells were then pre-stimulated for 15 minutes with 4 μM of the water soluble forskolin derivative NKH-477 (Tocris, catalog no. 1603) to increase intracellular cAMP levels. An aliquot of cells was removed for use in uninduced controls. […] After a three hour equilibration, plates were read on an Envision multi-mode detector (PerkinElmer). TR-FRET was measured using a 330-380 nm excitation filter, 615 and 665 nm emission filters, and a 380 nm dichroic mirror set at a Z-height of 11 mm.
The cAMP concentration in each well was back-calculated from a cAMP standard curve run concurrently with each assay. Cyclic AMP responses were expressed as a percent of the difference between the maximum and minimum responses, determined from the induced and uninduced controls, respectively. […]
(In TR-FRET formats the signal depends on donor and acceptor labels being close together.)

Assay [2] concerns the target T1, human DP2 receptor. Nature of the assay: Prostaglandin D2 binding inhibition assay (scintillation proximity assay, 3H PGD2, membranes of transfected CHO cells). Particulars: SPA, 5.5 nM 3H PGD2, CHO-K1 FLP-In human DP2 membranes; upper limit determinable 30 μM; read-out: IC50 ranges for inhibition of PGD2 binding to human DP2. In short, it runs like this:
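Membranes (5 μg) from CHO-K1 cells stably expressing human DP2 were mixed with WGA SPA beads and 5.5 nM 3H PGD2 in Tris buffer with 10 mM MgCl2, 100 mM NaCl, 0.1% BSA, plus compound. After 60 min at room temperature, CPM were read; IC50 from two-parameter nonlinear regression.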
(In general: In a scintillation proximity assay essentially only radioactivity close to the scintillant gives light.)

Each structure is given as a SMILES string. A value given as a limit tells only on which side of the number the result lay.

Consider `CS(=O)(=O)c1ccccc1S(=O)(=O)N1CCC(n2c(=O)n(CC(=O)O)c3cccnc32)CC1` [Compound 63, 2-(3-(1-(2-(methylsulfonyl)phenyl-sulfonyl)piperidin-4-yl)-2-oxo-2,3-dihydro-1H-imidazo[4,5-b]pyridin-1-yl)acetic acid], for which the EC50 (usually the concentration at which the effect is half-maximal) on human DP2 receptor [1] (4 μM NKH-477 pre-stimulation, 30 nM PGD2, read-out: EC50, antagonism of intracellular cAMP induction) is below 1 µM. For the same molecule, on human DP2 receptor [1] (intracellular cAMP), the “mode of action at human DP2 (antagonist or agonist)” value is “antagonist”. Further, at human DP2 receptor [2], the IC50 (commonly the midpoint of a concentration-inhibition curve) was below 1 µM.
For `CS(=O)(=O)c1ccccc1S(=O)(=O)N1CCC(n2c(=O)n(CC(=O)O)c3cnccc32)CC1` [Compound 143, 2-(1-(1-(2-(methylsulfonyl)phenylsulfonyl)piperidin-4-yl)-2-oxo-1H-imidazo[4,5-c]pyridin-3(2H)-yl)acetic acid], the IC50 on human DP2 receptor [2] was above 30 µM.
On to `Cc1cc(F)ccc1S(=O)(=O)N1CCC(n2c(=O)n(CC(=O)O)c3cnccc32)CC1` [Compound 144, 2-(1-(1-(4-fluoro-2-methylphenylsulfonyl)piperidin-4-yl)-2-oxo-1H-imidazo[4,5-c]pyridin-3(2H)-yl)acetic acid], for which the IC50 at human DP2 receptor [2] was above 30 µM.
For `CS(=O)(=O)c1ccccc1S(=O)(=O)N1CCC(n2c(=O)n(CC(=O)O)c3ccncc32)CC1` [Compound 149, 2-(3-(1-(2-(methylsulfonyl)phenylsulfonyl)piperidin-4-yl)-2-oxo-2,3-dihydro-1H-imidazo[4,5-c]pyridin-1-yl)acetic acid], on human DP2 receptor [2], the IC50 was in the range of 1 to 10 µM.
On the same count and under the same terms, in the case of `O=C(O)Cn1c(=O)n(C2CCN(S(=O)(=O)c3ccc(F)cc3Cl)CC2)c2cnccc21` [Compound 150, 2-(3-(1-(2-chloro-4-fluorophenylsulfonyl)piperidin-4-yl)-2-oxo-2,3-dihydro-1H-imidazo[4,5-c]pyridin-1-yl)acetic acid] it was above 30 µM.

Source of the values: patent publication US20110190336A1, “AZABENZIMIDAZOLONES” (CARA THERAPEUTICS, INC., priority 2008, published 2011).
